In US8158575B2, “Agent for the prevention and treatment of sexually transmitted diseases-I” (priority 2001, dated 2012):
Values joined by “and” are separate entries in the source; they are usually repeats but may differ in a detail not shown here. Identical values can stand only once.

Assays:
[1] = tested on: ME180 cells; assay: XTT cell viability in the CD4-independent transmission assay
Experimental: ME180 cells, a CD4 negative, X4 positive cervical epithelial cell line is maintained in RPMI 1640 supplemented with 10% fetal bovine serum, glutamine and antibiotics. Twenty-four h prior to the assay ME180 cells are trypsonized, washed and seeded in 96-well flat bottom microtiter plates at a density of 2×10^3 cells per well. On the day of the assay, H9 cells chronically infected with the SK1 clinical isolate of HIV-1 (H9-SK1) are treated with freshly made mitomycin C (200 μg/ml) for 60 minutes at 37° C. This concentration of mitomycin C is sufficient to result in cell death, but allows virus transmission to occur. After mitomycin C treatment the H9-SK1 cells are washed three times with tissue culture medium. Test compounds are added to the ME180 monolayer followed by 2×10^4 H9-SK1 cells. The ME180 cells are co-cultured with H9-SK-1 cells and test material for 4 h, and the H9-SK1 cells are removed by washing the ME180 monolayer three times with PBS. At 24 and 48 h post assay initiation the wells are again washed three times with PBS to ensure removal of the H9-SK1 cells, and culture continued in test material free media. At six days post-co-cultivation, supernatants are collected and evaluated for p24 antigen expression by ELISA. Cell viability is assessed by XTT dye reduction. […] Testing in the presence of mucin is carried out by addition of 200 µg/ml of porcine mucin (Sigma Chemical Co., St Louis, Mo.) to the transmission reactions. Transmission intervals and washing without replacement of mucin or compound are carried as described above. All determinations are performed in triplicate with serial ½ Log10 dilution of the test materials.
TC50 values for the test materials are derived by measuring the reduction of the tetrazolium dye XTT (2,3-bis(2-methoxy-4-nitro-5-sulfophenyl)-5-[(phenylamino)carbonyl]-2H-tetrazolium hydroxide) in replicate microtiter plates containing cell and compound without virus. […] XTT solution is prepared daily as a stock of 1 mg/mL in PBS. Phenazine methosulfate (PMS) solution is prepared at 15 mg/mL in PBS and stored in the dark at −20° C. XTT/PMS stock is prepared immediately before use by diluting the PMS 1:100 into PBS and adding 40 µl per mL of XTT solution. Fifty microliters of XTT/PMS are added to each well of the plate and the plate incubated for 4 h at 37° C. The 4 h incubation has been empirically determined to be within the linear response range for […] dye reduction with the indicated numbers of cells for each assay. Adhesive plate sealers are used in place of the lids, the sealed plate is inverted several times to mix the soluble formazan product and the plate is read at 450 nm with a Molecular Devices Vmax 96 well plate format spectrophotometer.
Dextran sulfate (positive) and dextran (negative) are used as controls for the CD4-dependent and CD4-independent HIV transmission inhibition assays. […] Commercially available Penicillin (10,000 U/ml) Streptomycin (10.0 mg/ml) solution is used as a positive control for the Lactobacillus sensitivity assay.

[2] = tested on: Lactobacillus crispatus; assay: Lactobacillus growth sensitivity assay; format: cell-based; conditions: 24 h growth, OD 490 nm
Experimental: (§1) Lactobacillus crispatus and Lactobacillus jensenii were obtained from the American Type Tissue Culture Collection and grown in Lactobacilli MRS broth (Difco, Fisher Scientific, Pittsburgh, Pa.). This medium allows efficient growth of the Lactobacilli under anaerobic conditions. Bacillus stocks are produced and frozen in 15% glycerol at −80° C. for use in the sensitivity assay. To assess the effect of compounds on L. crispatus and L. jensenii growth, 10 ml of MRS media is inoculated with a stab from the glycerol bacterial stock. The culture is placed in a Gas Pak CO2 bag and incubated for 24 h at 37° C. The next day the lactobacillus cultures are diluted to an OD of 0.06 at a wavelength of 670 nm. Compounds are diluted and placed into a 96 well flat bottomed plate and the Lactobacillus sp. added. Commercially available Penicillin/Streptomycin solution at a high test concentration of 1.25 U/ml and 1.25 µg/ml, respectively, are used as the positive control. The plates are again incubated for 24 h at 37° C. in a Gas Pak CO2 bag and bacterial growth determined by measurement of optical density at 490 nm in a molecular devices plate reader. All determinations are performed with 6½ log dilutions from a high test concentration in triplicate.

[3] = tested on: Lactobacillus jensenii; assay: Lactobacillus growth sensitivity assay; format: cell-based; conditions: 24 h growth, OD 490 nm
Experimental: as §1

[4] = tested on: IIIB strain of HIV; format: cell-based, HIV-1; conditions: HeLa CD4 LTR […]-gal cells
Experimental: At 24 h media is removed and compound in media placed on the cells and incubated for 15 min at 37° C.

[5] = molecular target: T1, cell-to-cell fusion mediated by HIV-1 Env and CD4 (Human immunodeficiency virus type 1 group M subtype B, UniProt P04578); format: cell-based; conditions: TC50/IC50
T1 construct: expressed in transfected cells; host or cells: HeLa CD4 LTR beta-gal cells (CD4) co-cultured with HL2/3 cells (HIV-1 Env)
Experimental: (§2) The fusion assay assesses the ability of compounds to block cell-to-cell fusion mediated by HIV-1 Env and CD4 expressed on separate cells. This assay is sensitive to inhibitors of both the gp120/CD4 interaction and inhibitors of the X4 coreceptor. First, 5×10^3 HeLa CD4 LTR […]-gal cells are placed in microtiter wells and incubated overnight. The following day the media is removed and the HeLa CD4 LTR […]-gal cells are incubated for 1 h at 37° C. in fresh media with test compound. Following the incubation 5×10^3 HL2/3 cells are added and the incubation continued for 40 to 48 h. At 40 to 48 h […]-galactosidase enzyme expression is detected by chemiluminescence (Tropix Gal-screen™, Tropix, Bedford, Mass.). Compound toxicity is monitored on a sister plate using XTT dye reduction.

[6] = tested on: HeLa CD4 LTR […]-gal cells; assay: XTT toxicity on sister plate of the fusion assay; format: cell-based
Experimental: as §2

[7] = tested on: HSV-2; assay: Genital HSV prevention test in the mouse model; format: in vivo
Experimental: The efficacy of SPL-7013 was tested in a genital HSV prevention test in the mouse (strain MS) model. A dose of 15 μl of 100 mg/ml, or 10 mg/ml of the compound was instilled into the vagina of 16 animals 20 sec before HSV-2 infection. […] Total mortality in three days of the same number of control infected mice was used as an end-point of the tests.

[8] = tested on: viral strains of Herpes virus-2 resistant to modified nucleoside based antiviral agents; conditions: cell tests
[9] = 100 mg/ml intravaginal, 20 sec. prior to infection

BHAlyslys2lys4lys8lys16[NH—CO—CH2)O-3,6-Naphthyl-(SO3Na)2]32 [SPL-7013]
CD4-Independent Transmission Assay TC50 [1]: >100 µg/mL
L. crispatus (ID50) [2]: >100 µg/mL
L jensenii (ID50) [3]: >100 µg/mL
Attachment Assay IC50 [4]: 0.57 µg/ml
Fusion Assay TI [5]: >141
Fusion Assay TC50 [6]: >100 µg/mL
Animals Protected Against Infection (%) ([7]; 10 mg/ml intravaginal, 20 sec. prior to infection): 10/12 (83%)
Animals Protected Against Disease (%) [7, 9]: 11/11 (100%) and 12/12 (100%)
Animals Protected Against Infection (%) [7, 9]: 11/11 (100% and 12/12 (100%
Prevention of HSV-2 infection and disease (in words) ([7]; 15 μl of 100 mg/ml or 10 mg/ml intravaginal 20 sec before HSV-2 infection): prevented infection and disease in all animals tested
Activity against resistant Herpes virus-2 strains (in words) [8]: shown activity
